For one assay, the target named is c-Met enzyme (Homo sapiens (Human), UniProt P08581). The assay can be described thus: c-Met kinase inhibitory activity (DELFIA time-resolved fluorescence). The settings on record: c-Met kinase activity reduced to 50%. The class given is biochemical. How it is done:
The c-Met kinase inhibitory activity was analyzed using dissociation enhanced lanthanide fluoro-immunoassay (DELFIA, Perkin Elmer), which is a kind of time-resolved fluorescence (TRF). […] of the compound prepared in the present invention, as a test compound, was put in a Greiner 96-well V-shaped bottom plate, and a tyrosin kinase buffer ([…]) mixed with a c-Met enzyme was added thereto, and then the enzyme and the test compound were stirred for 15 minutes, followed by culturing. An ATP solution ([…]) was added thereto to proceed with a kinase reaction at room temperature for 30 minutes, and then a 50 mM […] solution (EDTA, […]) was added to stop the reaction. After that, the reaction mixture was transferred to a plate coated with Streptavidin, followed by culturing under shaking. After 2 hours, the cultured material was washed three times with a PBS-T buffer (PBS 0.05% Tween 20).
The europium-labeled anti-phosphotyrosine antibody was diluted to 1:[…] of the diluent was added per well, followed by culturing under shaking. After 1 hour, the cultured material was washed three times with a PBS-T buffer (PBS 0.05% Tween 20).

Assay [1] deals with gastric cancer cell line Hs746T. The assay can be described thus: Cancer cell proliferation inhibitory test (SRB or MTS assay, 72 hours). Type of assay: cell-based. The settings on record: Homo sapiens, cancer cell (Hs746T) proliferation inhibition, culturing with compound for 72 hours. The protocol: The drug used in the test was diluted to a desired concentration as a test medium, and the final concentration of dimethyl sulfoxide was 0.5% or less.
All the cancer cell lines used in the test originated from the human body, and gastric cancer cell lines Hs746T and MKN-45 were used.
5×10^3 cells of Hs746T were dispensed to each well of the 96-well flat bottom micro-plate. MKN-45 was dispensed at 1×10^4 cells. The cells were cultured for 24 hours, so that the cells adhered to the bottom, and then the culture liquid was removed. The culture liquid containing each of the compounds of the present invention was added, followed by culturing for 72 hours. After the culturing with the compound was completed, the cytotoxicity was measured using protein stain reagent SRB or MTS assay.
Specifically, after the culturing with the compound of the present invention was completed, the cultured liquid was removed. Each well was treated with a cool TCA solution, and allowed to stand at 4° C. for 1 hour to fix cells. The TCA solution was removed, followed by drying at room temperature, and then a stain solution containing 0.4% SRB dissolved in 1% acetic acid solution was added, and then the mixture was allowed to stand for 30 minutes to stain cells. […] The absorbance of each well was measured at a wavelength range of 520 nm using an Eliza reader (micro-plate reader).
The drug cytotoxicity was measured from the OD values for the well added without the drug (C), each well added with the drug (T), and the well initially added with the drug (Tz): [(T−Tz)/(C−Tz)]×100 for […]; or [(T−Tz)/(Tz)]×100 for Tz>T.
The cancer cell inhibitory activity measurement using MTS assay was conducted as follows. Specifically, after the culturing with the compound of the present invention was completed, the PMS solution and MTS solution constituting the CellTiter 96® AQueous Non-Radioactive Cell Proliferation Assay product from Promega Co. were mixed, and 20 μL was put into each well. After the cells were placed in an incubator for 4 hours, and then taken out and allowed to stand at room temperature for 10 minutes.
(In general: Tetrazolium assays rely on reduction of a dye to a coloured formazan, in cell work by metabolically active cells.)

Counter-ions that a name gives are not always drawn.

Sequence of c-Met enzyme (P08581 25-1390): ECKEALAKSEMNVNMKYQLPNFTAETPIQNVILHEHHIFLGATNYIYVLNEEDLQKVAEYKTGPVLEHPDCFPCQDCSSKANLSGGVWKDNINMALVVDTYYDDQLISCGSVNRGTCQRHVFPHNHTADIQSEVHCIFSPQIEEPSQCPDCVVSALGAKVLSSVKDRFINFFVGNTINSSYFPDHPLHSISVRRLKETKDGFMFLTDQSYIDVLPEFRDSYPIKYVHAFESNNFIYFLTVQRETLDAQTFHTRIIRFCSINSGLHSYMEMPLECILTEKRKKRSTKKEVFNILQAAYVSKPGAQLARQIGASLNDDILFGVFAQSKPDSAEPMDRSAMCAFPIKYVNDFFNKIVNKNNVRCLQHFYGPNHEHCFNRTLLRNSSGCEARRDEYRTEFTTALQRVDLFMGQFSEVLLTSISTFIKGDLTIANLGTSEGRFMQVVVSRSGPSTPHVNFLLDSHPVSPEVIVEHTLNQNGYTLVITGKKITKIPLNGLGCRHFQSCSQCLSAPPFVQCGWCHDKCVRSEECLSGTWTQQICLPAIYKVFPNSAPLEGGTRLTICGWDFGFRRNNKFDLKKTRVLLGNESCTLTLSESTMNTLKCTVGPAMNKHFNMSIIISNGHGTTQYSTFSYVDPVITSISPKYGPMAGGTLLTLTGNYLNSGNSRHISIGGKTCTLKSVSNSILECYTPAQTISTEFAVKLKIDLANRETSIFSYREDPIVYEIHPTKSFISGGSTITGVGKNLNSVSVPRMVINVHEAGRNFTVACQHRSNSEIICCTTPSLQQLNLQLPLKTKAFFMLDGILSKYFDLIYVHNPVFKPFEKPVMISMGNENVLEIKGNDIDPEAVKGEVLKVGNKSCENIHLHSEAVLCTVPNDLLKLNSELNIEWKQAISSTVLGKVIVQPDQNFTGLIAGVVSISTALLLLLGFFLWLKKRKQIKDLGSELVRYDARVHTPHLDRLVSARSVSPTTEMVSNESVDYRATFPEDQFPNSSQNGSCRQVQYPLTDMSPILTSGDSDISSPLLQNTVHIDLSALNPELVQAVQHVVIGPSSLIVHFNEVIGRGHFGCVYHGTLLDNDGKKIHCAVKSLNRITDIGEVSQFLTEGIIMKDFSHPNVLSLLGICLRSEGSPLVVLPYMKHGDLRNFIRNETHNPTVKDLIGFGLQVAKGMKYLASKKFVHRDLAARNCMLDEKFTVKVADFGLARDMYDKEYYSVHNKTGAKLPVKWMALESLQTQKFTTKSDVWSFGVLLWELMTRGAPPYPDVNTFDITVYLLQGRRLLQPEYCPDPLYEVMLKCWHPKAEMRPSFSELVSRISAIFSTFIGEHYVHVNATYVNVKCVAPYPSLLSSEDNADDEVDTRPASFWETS

As usually defined, the IC50 is the midpoint of a concentration-inhibition curve. Regarding `Cn1cc(-c2cnc3nnn(CC4CCCN(c5ncc(-c6cnn(C7CCNCC7)c6)cn5)C4)c3n2)cn1` (stereo not drawn) [Chemical formula 37, 6-(1-methyl-1H-pyrazol-4-yl)-1-((1-(5-(1-(piperidin-4-yl)-1H-pyrazol-3-yl)pyrimidin-2-yl)piperidin-3-yl)methyl)-1H-[1,2,3]triazolo[4,5-b]pyrazinehydrochloride], the IC50 on c-Met enzyme was 2 nM; in assay [1], 1.3 nM.
In the case of `Cn1cc(-c2cnc3nnn(CC4CCCN(c5ncc(-c6cnn(CCO)c6)cn5)C4)c3n2)cn1` (stereo not drawn) [Chemical formula 36, 2-(3-(2-(3-((6-(1-methyl-1H-pyrazol-4-yl)-1H-[1,2,3]triazolo[4,5-b]pyrazin-1-yl)methyl)piperidin-1-yl)pyrimidin-5-yl)-1H-pyrazol-1-yl)ethanolhydrochloride], the concentration for half-maximal inhibition (IC50) against c-Met enzyme stood at 2 nM; in assay [1], 3.8 nM.
As for `Cn1cc(-c2cnc3nnn(C[C@@H]4CN(c5ncc(-c6cnn(C7CCN(CCO)CC7)c6)cn5)CCO4)c3n2)cn1` [Chemical formula 8, (S)-2-(4-(4-(2-(2-((6-(1-methyl-1H-pyrazol-4-yl)-1H-[1,2,3]triazolo[4,5-b]pyrazin-1-yl)methyl)morpholino)pyrimidin-5-yl)-1H-pyrazol-1-yl)piperidin-1-yl)ethanol], the half-maximal inhibitory concentration (IC50) against c-Met enzyme was 4 nM; in assay [1], 0.14 nM.
The like results for `Cn1cc(-c2cnc3nnn(C[C@@H]4CN(c5ncc(-c6ccc(OCCN7CCOCC7)cc6)cn5)CCO4)c3n2)cn1` [Chemical formula 14, (S)-2-((6-(1-methyl-1H-pyrazol-4-yl)-1H-[1,2,3]triazolo[4,5-b]pyrazin-1-yl)methyl)-4-(5-(4-(2-morpholinoethoxy)phenyl)pyrimidin-2-yl)morpholine] were, in that order, 14 nM and 4.1 nM.
Turning to `Cn1cc(-c2cnc3nnn(C[C@@H]4CN(c5ncc(C6CCN(CCO)CC6)cn5)CCO4)c3n2)cn1` [Chemical formula 21, (S)-2-(4-(2-(2-((6-(1-methyl-1H-pyrazol-4-yl)-1H-[1,2,3]triazolo[4,5-b]pyrazin-1-yl)methyl)morpholino)pyrimidin-5-yl)piperidin-1-yl)ethanol], the IC50 against c-Met enzyme was determined as 5 nM; in assay [1] it was 5.6 nM.
Turning to `Cn1cc(-c2cnc3nnn(C[C@@H]4CN(c5ncc(-c6cnn(C7CCNCC7)c6)cn5)CCO4)c3n2)cn1` [Chemical formula 4, (S)-2-((6-(1-methyl-1H-pyrazol-4-yl)-1H-[1,2,3]triazolo[4,5-b]pyrazin-1-yl)methyl)-4-(5-(1-(piperidin-4-yl)-1H-pyrazol-4-yl)pyrimidin-2-yl)morpholine HCl salt], the figures for the IC50 (at c-Met enzyme; in assay [1]) were 11 nM and 1.2 nM, respectively.
For the molecule `CN1CCC(n2cc(-c3cnc(N4CCO[C@H](Cn5nnc6ncc(-c7cnn(C)c7)nc65)C4)nc3)cn2)CC1` [Chemical formula 7, (S)-2-((6-(1-methyl-1H-pyrazol-4-yl)-1H-[1,2,3]triazolo[4,5-b]pyrazin-1-yl)methyl)-4-(5-(1-(1-methylpiperidin-4-yl)-1H-pyrazol-4-yl)pyrimidin-2-yl)morpholine], the results for the half-inhibitory concentration (IC50) (against c-Met enzyme; in assay [1]) were 6 nM and 0.11 nM, respectively.
For `CN1CC=C(c2cnc(N3CCO[C@H](Cn4nnc5ncc(-c6cnn(C)c6)nc54)C3)nc2)CC1` [Chemical formula 10, (S)-4-(5-(1-methyl-1,2,3,6-tetrahydropyridin-4-yl)pyrimidin-2-yl)-2-((6-(1-methyl-1H-pyrazol-4-yl)-1H-[1,2,3]triazolo[4,5-b]pyrazin-1-yl)methyl)morpholine], the half-maximal inhibitory concentration (IC50) is 4 nM against c-Met enzyme and 1.1 nM in assay [1].
As for `N#Cc1cc(-c2cnc3nnn(C[C@@H]4CN(c5ncc(C6=CCNCC6)cn5)CCO4)c3n2)ccc1F` [Chemical formula 30, (S)-2-fluoro-5-(1-((4-(5-(1,2,3,6-tetrahydropyridin-4-yl)pyrimidin-2-yl)morpholine-2-yl)methyl)-1H-[1,2,3]triazolo[4,5-b]pyrazin-6-yl)benzonitrile], the results for the half-maximal inhibitory concentration (IC50) (at c-Met enzyme; in assay [1]) were 2 nM and 0.11 nM, respectively.
On to `CN1CC=C(c2cnc(N3CCCC(Cn4nnc5ncc(-c6cnn(C)c6)nc54)C3)nc2)CC1` (stereo not drawn) [Chemical formula 34, 1-((1-(5-(1-methyl-1,2,3,6-tetrahydropyridin-4-yl)pyrimidin-2-yl)piperidin-3-yl)methyl)-6-(1-methyl-1H-pyrazol-4-yl)-1H-[1,2,3]triazolo[4,5-b]pyrazine], for which the IC50 was 3 nM on c-Met enzyme and 15 nM in assay [1].
For `N#Cc1cc(-c2cnc3nnn(C[C@@H]4CN(c5ncc(-c6cnn(CCO)c6)cn5)CCO4)c3n2)ccc1F` [Chemical formula 32, (S)-2-fluoro-5-(1-((4-(5-(1-(2-hydroxyethyl)-1H-pyrazol-4-yl)pyrimidin-2-yl)morpholine-2-yl)methyl)-1H-[1,2,3]triazolo[4,5-b]pyrazin-6-yl)benzonitrile], the results for the 50% inhibitory concentration (IC50) (on c-Met enzyme; in assay [1]) were 1 nM and 0.14 nM, respectively.
The like results for `Cn1cc(-c2cnc3nnn(C[C@@H]4CN(c5ncc(C6=CCN(CCO)CC6)cn5)CCO4)c3n2)cn1` [Chemical formula 12, (S)-2-(4-(2-(2-((6-(1-methyl-1H-pyrazol-4-yl)-1H-[1,2,3]triazolo[4,5-b]pyrazin-1-yl)methyl)morpholino)pyrimidin-5-yl)-5,6-dihydropyridin-1(2H)-yl)ethanol] were, in that order, 4 nM and 0.96 nM.

For the origin of these results see patent US9403831B2, “Triazolopyrazine derivative and use thereof” (KOREA RESEARCH INSTITUTE OF CHEMICAL TECHNOLOGY, priority 2013, dated 2016).
